Earlier results, collected in US9040672B2, “Devices and methods for reducing matrix effects” (Agilent Technologies, Inc., priority 2007, dated 2015).

Settings: octanol-water partition coefficient

| SMILES | Log P |
| --- | --- |
| CC[C@@H]([C@H](C)O)n1ncn(-c2ccc(N3CCN(c4ccc(OC[C@@H]5CO[C@@](Cn6cncn6)(c6ccc(F)cc6F)C5)cc4)CC3)cc2)c1=O [posaconazole] | 5.66 |
| NC(=O)N1c2ccccc2C=Cc2ccccc21 [carbamazepine] | 2.69 |
